Assay results: US8846752B2, “Isoflavone fatty acid ester derivatives, preparation method and pharmaceutical uses thereof” (China Pharmaceutical University, priority 2010, dated 2014)

Assays:
High Fat Diet Rats = assay: Losing weight and depressing blood fat in high-fat diet SD rats; format: in vivo; conditions: intragastric once a day for a month, compounds 25 mg/kg, sibutramine 1.0 mg/kg, mean ± SD, n = 10
Method: 1. Activity Determination of Losing Weight and Depressing Blood Fat of SD Rats
The experiment refers to the methods in Experimental Methodology of Pharmacology compiled by Xu Shuyun et al, People's Medical Publishing House 2002: 1189-1201, which is slightly modified.
SD rates (weight 80 g-100 g, male, clean grade) are randomly divided into the following groups according to the weight:
Blank control group (normal diet group); model control group (high-fat diet group); sibutramine, 1.0 mg/kg; Group I-1, 25 mg/kg; Group I-2, 25 mg/kg; Group I-3, 25 mg/kg; Group II-1, 25 mg/kg; Group II-2, 25 mg/kg; Group II-3, 25 mg/kg.
Except the blank control group, the other groups are fed with high-fat diet for two months. In the third month, all groups are required for intragastric administration and the blank control group and model control group are given appropriate volume of excipients once a day for a consecutive month. After the administration, exsanguinate and kill the rats, take femoral arterial blood and separate the plasma, and then measure the parameters according to the unified operating procedures in the kit instructions. Remove the fat around abdominal cavity and reproductive organs, weigh its wet weight and determine the body weight.

[1] = test system: high fat and high sugar model ICR mice; assay: Losing weight, depressing blood fat and regulating blood sugar balance in high fat and high sugar ICR mice; format: in vivo; parameters: Serum insulin concentration INS: unit not given here; conditions: n = 10, x ± s
From the text: 2. Activity Determination of Losing Weight, Depressing Blood Fat and Regulating Blood Sugar Balance of ICR Mice
The experiment refers to the methods of Raquel Ferrer-Lorente et al (European Journal of Pharmacology, 2005, 513: 243-248), which are slightly modified.
Take 40 ICR mice (male, weight 13-15 g) and randomly divide them into two large groups according to their weight, a normal diet group (n=10) and a high fat and high sugar model group (n=30); give normal diet to the normal diet group and conduct subcutaneous injection of physiological saline each day; give high-fat and high-sugar diet to the high fat and high sugar model group and conduct subcutaneous injection of insulin (0.5 U/kg) each day. The food is not restricted. Measure the food regularly each day, weigh the weight once a week and feed 7 consecutive weeks.
7 weeks after modeling, the normal diet group is unchanged and the high fat and high sugar model group is divided into model control group (n=10), I-1 administration group (n=10) and I-2 administration group (n=10). The feed of each group is unchanged. The administration group is given corresponding compounds with the dose of 50 mg/kg and the blank group is given the equal volume of blank solvent. Conduct intragastric administration on each group for consecutive 30 days. Weigh 12 h after fasting after last administration, take the eyeballs for blood, prepare serum, determine the blood fat (triglyceride TG, free fatty acid FFA, total cholesterol TC, low density lipoprotein cholesterol LDL-C and high density lipoprotein cholesterol HDL-C) content and blood insulin content and detect the oxidative damage indicators in the blood (malondialdehyde MAD and superoxide dismutase SOD). Take off the cervical vertebrae to kill the rats, separate the perirenal, testicular, mesenteric and inguinal (subcutaneous) white adipose tissue, wash clean with cold physiological saline and dry with filter paper, and then weigh.

KM mice = assay: Acute toxicity test of KM mice; format: in vivo
Method: 3. Acute Toxicity Test of KM Mice
3.1 I-1 Acute Toxicity Test of Intragastric Administration (ig) for Mice
3.2 I-1 Acute Toxicity Test of Subcutaneous Injection (sc) for Mice
After sc I-1 2000 mg/kg of mice under the conditions of maximum administration capacity and maximum administration concentration, no mice die and the mice toxic symptoms express as decrease in spontaneous activities and often creeping lying without moving. After about 48 h, mice activities begin to increase. Compared with the control group, the weight gain in subsequent observation period is slower.

3T3-L1 cells [2] = assay: Cell proliferation determination with MTT method; format: cell-based; conditions: 25, 50, 100 and 200 μmol/L, 2 d; P<0.05 vs blank group; FIG. 1
Method: 4.1.1 Cell Proliferation Determination Experiment with MTT Method
Inoculate 3T3-L1 cells in 96-hole cell culture plate. After 2 d of conventional culture, replace with DMEM culture solutions with different concentrations (25, 50, 100 and 200 μmol/L) of Series I compounds. The control group is the culture solution containing 0.1% (V/V) ethanol (96%). 3 complex holes are set for each concentration in each group, processing 2 d. Discard the culture solution in the holes and add 20 μL MTT solution in each hole and culture at 37 for 4 h. Then discard the solution in the hole, add 100 μL DMSO solution in each hole, shake thoroughly and measure the absorbance (A) immediately in the enzyme-linked immunosorbent assay. The wavelength is measured to be 570 nm.

3T3-L1 cells [3] = assay: Oil red staining colorimetric experiment (preadipocyte differentiation); format: cell-based; conditions: 8th day of differentiation, 2nd day of administration; FIG. 2 and FIG. 3
Method: 4.1.2 Oil Red Staining Colorimetric Experiment
4.1.2.1 Culture 3T3-L1 cells in conventional medium and replace with differential medium I (DMEM culture solution containing 15% FBS, 0.4 mmol/L IBMX, 10 mg/L insulin and 1 μmol/L DEX) 2 d after the cells are completely merged (0 d of differentiation) for culture for 2 d. In the second day of differentiation, replace with differential medium II (DMEM culture solution containing 15% FBS and 10 mg/L insulin) to culture cells. In the 6th day of differentiation and later, replace with corresponding DMEM culture solution containing series I compounds. The control group is the complete culture solution without drugs.
4.1.2.2. Oil Red O Staining
In the 8th day of differentiation, discard the culture solution in the holes, wash with PBS for twice and add the solution containing 10% methanal to fix cells for 2 h. Wash with PBS for twice and stain with 0.5% oil red for 2 h. Wash with PBS for three times, dry at 37, add isopropanol, extract for 10 min and measure the absorbance value of the extract liquor at 492 nm.

PPARγ2-mRNA = assay: RT-PCR of PPARγ2-mRNA expression in 3T3-L1 cells; format: cell-based; conditions: during differentiation of preadipocyte 3T3-L1; GAPDH internal reference; FIG. 4
Method: 4.1.3 Reverse Transcription
Polymerase chain reaction (RT-PCR) experiment Extract the total RNA of fully differentiated 3T3-L1 cells to be reversely transcribed into cDNA. The primers are designed as follows:
• The length of the target product is 567 bp.
• The length of the target product is 424 bp.
PCR amplification conditions: initial denaturation at 94 for 5 min, then denaturize at 94 for 30 s, anneal at 57 for 40 s, and extend at 72 for 50 s, a total of 30 cycles. Finally extend at 72 for 10 min. Then conduct electrophoresis analysis with 1.5% agarose gel. GAPDH is used as the internal reference to alleviate the error between different samples. Compare the optical density of objective band with the optical density of amplified GAPDH band for analysis.

[4] = 50 mg/kg intragastric for 30 days
[5] = high fat and high sugar model, 50 mg/kg intragastric daily
[6] = serum, 50 mg/kg intragastric for 30 days

For CCCCCCCC/C=C\CCCCCCCC(=O)Oc1ccc2c(=O)c(-c3ccc(OC)cc3)coc2c1 [I-1, 4′-methoxy-7-O-oleoyl daizeol], the Fat index (High Fat Diet Rats) was 5.0 ± 1.6 g/100 g, the “Free fatty acid FFA” value (High Fat Diet Rats) was 606.7 ± 144.7 µmol/L and the “Total cholesterol TC” value (High Fat Diet Rats) was 1.31 ± 0.27 mmol/L. The “Triglyceride TG” value (High Fat Diet Rats) was 0.91 ± 0.22 mmol/L, the Weight after administration (High Fat Diet Rats) was 309 ± 36 g and the Celiac total fat [1, 4] was 0.595 ± 0.172 g. For the same compound, the Epididymal fat [1, 4] was 0.382 ± 0.230 g, the “MDA (serum oxidative damage indicator)” value [1, 4] was 0.810 ± 0.162 nmol/L and the Mesenteric fat [1, 4] was 0.135 ± 0.047 g. The Perirenal fat [1, 4] was 0.078 ± 0.050 g, the “SOD (serum oxidative damage indicator)” value [1, 4] was 382.3 ± 200.9 U/ml and the “Serum insulin concentration INS” value [1, 4] was 20.26 ± 2.69. The Subcutaneous fat [1, 4] was 0.136 ± 0.065 g, the “Body weight 1 week after” value [1, 5] was 39.1 ± 5.2 g and the “Body weight 2 weeks after” value [1, 5] was 33.8 ± 3.7 g. For the same compound, the “Body weight 3 weeks after” value [1, 5] was 31.5 ± 2.0 g, the “Body weight before administration” value ([1]; high fat and high sugar model, baseline before 50 mg/kg intragastric) was 41.8 ± 5.7 g and the FFA [1, 6] was 0.55 ± 0.14 mmol/L. For the same compound, the HDL-C [1, 6] was 1.70 ± 0.53 mmol/L, the LDL-C [1, 6] was 1.068 ± 0.636 mmol/L and the TC [1, 6] was 2.79 ± 0.39 mmol/L. The TG [1, 6] was 0.97 ± 0.21 mmol/L, the LD50 (KM mice; intragastric administration (ig)) was 2163.8 mg/kg and the Mortality (KM mice; subcutaneous injection (sc) 2000 mg/kg, maximum administration capacity and concentration) was “no mice die”. The “Proliferation of preadipocyte 3T3-L1 (MTT, OD value)” value (3T3-L1 cells [2]) was “significant inhibition action”, the “Adipose differentiation of 3T3-L1 cells (oil red stained lipid droplets)” value (3T3-L1 cells [3]) was “lipid droplets are significantly decreased” and the PPARγ2-mRNA expression quantity (PPARγ2-mRNA) was “increased”.
